The term IC50 denotes the concentration needed to halve the response being measured.

T1 sequence (P15056 whole entry V600E): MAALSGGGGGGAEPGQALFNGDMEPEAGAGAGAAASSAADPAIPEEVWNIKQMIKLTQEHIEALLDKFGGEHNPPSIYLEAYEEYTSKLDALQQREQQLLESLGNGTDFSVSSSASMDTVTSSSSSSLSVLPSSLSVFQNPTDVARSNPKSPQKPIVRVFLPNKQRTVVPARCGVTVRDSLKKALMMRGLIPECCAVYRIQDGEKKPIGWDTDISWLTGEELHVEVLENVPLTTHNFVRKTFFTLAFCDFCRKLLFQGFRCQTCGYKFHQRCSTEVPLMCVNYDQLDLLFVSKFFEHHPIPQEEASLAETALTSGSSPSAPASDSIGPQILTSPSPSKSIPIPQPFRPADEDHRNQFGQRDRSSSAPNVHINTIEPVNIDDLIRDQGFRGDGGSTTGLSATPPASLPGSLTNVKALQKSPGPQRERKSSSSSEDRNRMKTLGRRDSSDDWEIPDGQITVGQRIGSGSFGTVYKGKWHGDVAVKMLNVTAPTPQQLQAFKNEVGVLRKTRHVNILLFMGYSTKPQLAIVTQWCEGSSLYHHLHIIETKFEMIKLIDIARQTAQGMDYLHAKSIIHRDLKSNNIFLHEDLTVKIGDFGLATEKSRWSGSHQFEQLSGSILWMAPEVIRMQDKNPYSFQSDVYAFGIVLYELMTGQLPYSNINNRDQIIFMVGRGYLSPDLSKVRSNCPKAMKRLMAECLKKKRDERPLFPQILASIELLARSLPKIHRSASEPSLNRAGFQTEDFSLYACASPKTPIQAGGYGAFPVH

The experiment concerns the target T1, b-Raf (Homo sapiens, UniProt P15056, V600E).
T1 construct: endogenous in cells; host or cells: A2058 human melanoma cells
The experiment is described as follows: Raf cellular assay (phospho-Mek1/2 ELISA in A2058 cells). Format: cell-based. The following applies: Table 3; human melanoma A2058 cells (b-Raf mutation), Mek1/2 Ser217/221 phosphorylation, 1 hour incubation; read-out: pMEK IC50. As for the experimental part:
Compounds of the present invention were evaluated for potency against b-Raf using a cellular assay as follows. The activity of Raf kinases in cells is determined by measuring the level of phosphorylation of Mek1/2 at serine 217/221, the site phosphorylated by Raf kinases in vivo. Mek1/2 Ser phosphorylation is measured using anti-phospho-Mek1/2 antibodies (Cell Signaling #9121) in an ELISA format.
Healthy growing human melanoma A2058 cells (harboring a b-Raf mutation) are used for the assay. A2058 cells are grown in 10% FBS DMEM medium. When the cells are near 85%+confluence, the cells are rinsed with PBS once and trypsinized with trypsin/EDTA for 3 minutes. The cells are resuspended in 10% FBS DMEM and are centrifuged down at 1000 rpm for 5 minutes. The cells are resuspended in 10% FBS DMEM and counted on a cell counter. The cells are seeded at 50,000 cells/well in a volume of 100 μL/well in 10% FBS DMEM in a 96 well flat-bottom plate. The negative control wells receive only 100 μL of 10% FBS DMEM medium without cells. The plate is incubated overnight in a cell culture incubator with 5% CO2 at 37° C.
On day 2, testing compounds are prepared in 10% FBS DMEM medium and serially diluted at 1:3 for 11 test concentrations. Each concentration of the compounds is tested in duplicate. The compound solutions are added at 25 μL/well to the corresponding wells in the cell plate, and 25 μL/well of the vehicle (0.5% DMSO in 10% FBS DMEM) is added to the negative control wells (no cells) and the positive control wells (cells without compounds). The plate is incubated for 1 hour in a cell culture incubator with 5% CO2 at 37° C. After 1 hour of incubation, the medium is removed, 100 μL/well of cell lysis buffer is added into the cell plate, and the plate is shaken for 15 minutes at room temperature. After 15 minutes, the cell lysates are transferred to an ELISA plate (pre-coated with anti-Mek1 anti-body, Cell Signaling #2352), and the plate is incubated with gentle shaking for 2 hours at room temperature. After 2 hours, the contents of the wells are aspirated and the wells are washed 4 times with wash buffer. 100 μL of phospho-Mek1/2 detection antibody (Cell Signaling #9121) is added into each well and the plate is incubated with gentle shaking for 1 hour at room temperature. After 1 hour, the wells are aspirated and washed 4 times with wash buffer. 100 μL of anti-rabbit IgG HRP-linked antibody (Cell Signaling #7074) is added to each well, and the plate is incubated with gentle shaking for 1 hour at room temperature. After 1 hour, the contents of the wells are aspirated and the wells are washed 4 times with wash buffer. 100 μL of TMB substrate solution (Sigma #T0440) is added into each well, and the plate is incubated with gentle shaking at room temperature for 10 to 20 minutes. After color development, 100 μL of stop solution (1N hydrochloric acid) is added to each well to terminate color development. The plate is read at 450 nm on an ELISA plate reader.
With `Cc1n[nH]c2ncc(-c3nn(CC(F)F)cc3-c3ccnc(NCCC#N)n3)cc12` [Example B-91, 3-(4-(1-(2,2-difluoroethyl)-3-(3-methyl-1H-pyrazolo[3,4-b]pyridin-5-yl)-1H-pyrazol-4-yl)pyrimidin-2-ylamino)propanenitrile], the IC50 is 4.94 nM.
For the compound `COc1cc(-c2nn(C(C)(C)C)cc2-c2ccnc(NCC(F)F)n2)cnc1N` [Example B-54, 4-[3-(6-amino-5-methoxypyridin-3-yl)-1-tert-butyl-1H-pyrazol-4-yl]-N-(2,2-difluoroethyl)pyrimidin-2-amine], the IC50 turned out to be 1.24 nM.
Regarding `Cc1c[nH]c2ncc(-c3nn(CC(F)F)cc3-c3ccnc(N)n3)cc12` [Example B-108, 4-[1-(2,2-difluoroethyl)-3-(3-methyl-1H-pyrrolo[2,3-b]pyridin-5-yl)-1H-pyrazol-4-yl]pyrimidin-2-amine], the IC50 turned out to be 11.2 nM.
As for `Cc1c[nH]c2ncc(-c3nn(CC(F)F)cc3-c3ccnc(NCCO)n3)cc12` [Example B-105, 2-({4-[1-(2,2-difluoroethyl)-3-(3-methyl-1H-pyrrolo[2,3-b]pyridin-5-yl)-1H-pyrazol-4-yl]pyrimidin-2-yl}amino)ethanol], the figure is 9.46 nM; as for `Cc1cc(-c2nn(C(C)(C)CO)cc2-c2ccnc(NCCC#N)n2)cnc1N` [Example B-47, 3-({4-[3-(6-amino-5-methylpyridin-3-yl)-1-(2-hydroxy-1,1-dimethylethyl)-1H-pyrazol-4-yl]pyrimidin-2-yl}amino)-propanenitrile], 86.2 nM; as for `COc1cc(-c2nn(CC(F)F)cc2-c2ccnc(NCCC#N)n2)cnc1N` [Example B-82, 3-(4-(3-(6-amino-5-methoxypyridin-3-yl)-1-(2,2-difluoroethyl)-1H-pyrazol-4-yl)pyrimidin-2-ylamino)propanenitrile], 0.627 nM.
As to `CC(C)(CO)n1cc(-c2ccnc(NCCC#N)n2)c(-c2cnc3[nH]ccc3c2)n1` [Example B-25, 3-({4-[1-(2-hydroxy-1,1-dimethylethyl)-3-(1H-pyrrolo[2,3-b]pyridin-5-yl)-1H-pyrazol-4-yl]pyrimidin-2-yl}amino)propanenitrile], the IC50 was 5.98 nM.
Regarding `CC(C)(CO)n1cc(-c2ccnc(NCCC#N)n2)c(-c2cnc3[nH]cc(F)c3c2)n1` [Example B-24, 3-({4-[3-(3-fluoro-1H-pyrrolo[2,3-b]pyridin-5-yl)-1-(2-hydroxy-1,1-dimethylethyl)-1H-pyrazol-4-yl]pyrimidin-2-yl}amino)propanenitrile], the IC50 was 3.26 nM.
As for `COc1cc(-c2nn(C3CC3)cc2-c2ccnc(N)n2)cnc1N` [Example B-56, 4-[3-(6-amino-5-methoxypyridin-3-yl)-1-cyclopropyl-1H-pyrazol-4-yl]pyrimidin-2-amine], the 50% inhibitory concentration (IC50) stood at 83.3 nM.
Under `COc1cc(-c2nn(CC(F)F)cc2-c2ccnc(NC[C@H](C)O)n2)cnc1N` [Example B-104, (2S)-({4-[3-(6-amino-5-methoxypyridin-3-yl)-1-(2,2-difluoroethyl)-1H-pyrazol-4-yl]pyrimidin-2-yl}amino)propan-2-ol] stands 9.62 nM.
With `COc1cc(-c2nn(C3CC3)cc2-c2ccnc(NCC(F)F)n2)cnc1N` [Example B-59, 4-[3-(6-amino-5-methoxypyridin-3-yl)-1-cyclopropyl-1H-pyrazol-4-yl]-N-(2,2-difluoroethyl)pyrimidin-2-amine], the IC50 amounted to 6.86 nM.
Consider `Cc1[nH]c2ncc(-c3nn(C(C)C)cc3-c3ccnc(NC[C@H](C)O)n3)cc2c1Cl` [Example B-97, (2S)-1-({4-[3-(3-chloro-2-methyl-1H-pyrrolo[2,3-b]pyridin-5-yl)-1-isopropyl-1H-pyrazol-4-yl]pyrimidin-2-yl}amino)propan-2-ol], for which the IC50 came to 174 nM.
As for `CC(C)(CO)n1cc(-c2ccnc(NCC(F)F)n2)c(-c2cnc3[nH]ccc3c2)n1` [Example B-48, 2-[4-{2-[(2,2-difluoroethyl)amino]pyrimidin-4-yl}-3-(1H-pyrrolo[2,3-b]pyridin-5-yl)-1H-pyrazol-1-yl]-2-methylpropan-1-ol], the figure is 30.3 nM; as for `Cn1ccc2ncc(-c3nn(CC(F)F)cc3-c3ccnc(NCCC#N)n3)cc21` [Example B-38], 18.7 nM; as for `Cc1n[nH]c2ncc(-c3nn(C(C)(C)CO)cc3-c3ccnc(NCCC#N)n3)cc12` [Example B-94, 3-(4-(1-(1-hydroxy-2-methylpropan-2-yl)-3-(3-methyl-1H-pyrazolo[3,4-b]pyridin-5-yl)-1H-pyrazol-4-yl)pyrimidin-2-ylamino)propanenitrile], 13.3 nM.
On to `Cc1cc(-c2nn(CC(F)F)cc2-c2ccnc(NCCC#N)n2)cnc1N` [Example G-7, 3-(4-(3-(6-amino-5-methylpyridin-3-yl)-1-(2,2-difluoroethyl)-1H-pyrazol-4-yl)pyrimidin-2-ylamino)-propanenitrile], for which the IC50 came out at 28.5 nM.
Under `COc1cncc(-c2nn([C@@H]3CCOC3)cc2-c2ccnc(NCCC#N)n2)c1` [Example B-73, 3-[(4-{3-(5-methoxypyridin-3-yl)-1-[(3R)-tetrahydrofuran-3-yl]-1H-pyrazol-4-yl}pyrimidin-2-yl)amino]propanenitrile] stands 63.5 nM.
In the case of `CN1CCC(n2cc(-c3ccnc(NCC(F)F)n3)c(-c3cnc4[nH]cc(Cl)c4c3)n2)CC1` [Example B-114, 4-[3-(3-chloro-1H-pyrrolo[2,3-b]pyridin-5-yl)-1-(1-methylpiperidin-4-yl)-1H-pyrazol-4-yl]-N-(2,2-difluoroethyl)pyrimidin-2-amine], the IC50 is 2.22 nM.
Take `N#CCCNc1nccc(-c2cn(CC(F)F)nc2-c2cnc3[nH]ccc3c2)n1` [Example B-33, 3-({4-[1-(2,2-difluoroethyl)-3-(1H-pyrrolo[2,3-b]pyridin-5-yl)-1H-pyrazol-4-yl]pyrimidin-2-yl}amino)propanenitrile]: the IC50 stood at 4.48 nM.
Consider `C[C@H](O)CNc1nccc(-c2cn(C(C)(C)C#N)nc2-c2cnc3[nH]cc(Cl)c3c2)n1` [Example B-34, 2-[3-(3-chloro-1H-pyrrolo[2,3-b]pyridin-5-yl)-4-(2-{[(2S)-2-hydroxypropyl]amino}pyrimidin-4-yl)-1H-pyrazol-1-yl]-2-methylpropanenitrile], for which the IC50 amounted to 29.5 nM.
With `Cc1c[nH]c2ncc(-c3nn(C(C)(C)CO)cc3-c3ccnc(N)n3)cc12` [Example B-58, 2-[4-(2-aminopyrimidin-4-yl)-3-(3-methyl-1H-pyrrolo[2,3-b]pyridin-5-yl)-1H-pyrazol-1-yl]-2-methylpropan-1-ol], the IC50 was 9.86 nM.
As to `COc1nc(-c2nn(CC(F)F)cc2-c2ccnc(NCCC#N)n2)cnc1N` [Example B-32, 3-({4-[3-(5-amino-6-methoxypyrazin-2-yl)-1-(2,2-difluoroethyl)-1H-pyrazol-4-yl]pyrimidin-2-yl}amino)propanenitrile], the IC50 amounted to 1 nM.
Regarding `Cc1n[nH]c2ncc(-c3nn(C(C)C)cc3-c3ccnc(NCCC#N)n3)cc12` [Example B-51, 3-({4-[1-isopropyl-3-(3-methyl-1H-pyrazolo[3,4-b]pyridin-5-yl)-1H-pyrazol-4-yl]pyrimidin-2-yl}amino)propanenitrile], the half-inhibitory concentration (IC50) was found to be 11 nM.
Consider `CC(C)n1cc(-c2ccnc(NCCC#N)n2)c(-c2cnc3[nH]cc(F)c3c2)n1` [Example B-19, 3-({4-[3-(3-fluoro-1H-pyrrolo[2,3-b]pyridin-5-yl)-1-isopropyl-1H-pyrazol-4-yl]pyrimidin-2-yl}amino)propanenitrile], for which the IC50 came to 2.71 nM.
With `CC(C)(C)n1cc(-c2ccnc(NCCC#N)n2)c(-c2cnc3c(c2)CCN3)n1` [Example B-72, 3-({4-[1-tert-butyl-3-(2,3-dihydro-1H-pyrrolo[2,3-b]pyridin-5-yl)-1H-pyrazol-4-yl]pyrimidin-2-yl}amino)propanenitrile], the IC50 amounted to 8.15 nM.
As to `C[C@H](CO)n1cc(-c2ccnc(N)n2)c(-c2cnc3[nH]cc(Cl)c3c2)n1` [Example B-55, (2R)-2-[4-(2-aminopyrimidin-4-yl)-3-(3-chloro-1H-pyrrolo[2,3-b]pyridin-5-yl)-1H-pyrazol-1-yl]propan-1-ol], the IC50 amounted to 63.6 nM.

For the origin of these results see patent US7772246B2 (Pfizer Inc., priority 2007, dated 2010).
